Measured values as given in US10597388B2, “Pyridazinone herbicides” (FMC CORPORATION, priority 2014, dated 2020).

Legend:
Test in all cases: Test D controlled growth environment herbicide test, pre- and postemergence
Assay type in all cases: in vivo
[1] = tested on: pigweed (Amaranthus retroflexus)
In short: (§1)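 Pre-emergence: seeds sown in silt loam soil were sprayed with compound in a non-phytotoxic solvent mix containing surfactant. Post-emergence: plants at 2 to 18 cm (1- to 4-leaf stage) in peat moss/vermiculite medium got the same formulation. Visual 0–100 rating versus controls after 14 to 21 d.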

[2] = tested on: oilseed rape (Brassica napus)
In short: as §1

[3] = tested on: Russian thistle (Salsola kali)
In short: as §1

[4] = tested on: wheat, spring (spring wheat, Triticum aestivum)
In short: as §1

[5] = tested on: deadnettle (henbit deadnettle, Lamium amplexicaule)
In short: as §1

[6] = tested on: wheat, winter (winter wheat, Triticum aestivum)
In short: as §1

[7] = tested on: ryegrass, Italian (Italian ryegrass, Lolium multiflorum)
In short: as §1

[8] = tested on: radish, wild (wild radish, Raphanus raphanistrum)
In short: as §1

[9] = tested on: field violet (Viola arvensis)
In short: as §1

[10] = tested on: windgrass (Apera spica-venti)
In short: as §1

[11] = tested on: blackgrass (Alopecurus myosuroides)
In short: as §1

[12] = tested on: field poppy (Papaver rhoeas)
In short: as §1

[13] = tested on: chickweed (common chickweed, Stellaria media)
In short: as §1

[14] = Postemergence, 31 g ai/ha, scale 0 to 100 (0 no effect, 100 complete control)
[15] = Postemergence, 125 g ai/ha, visual rating on scale 0 (no effect) to 100 (complete control), 14 to 21 d
[16] = Postemergence, 250 g ai/ha, scale 0 to 100 (0 no effect, 100 complete control)
[17] = Preemergence, 62 g ai/ha, scale 0 to 100 (0 no effect, 100 complete control)
[18] = Preemergence, 125 g ai/ha, scale 0 to 100 (0 no effect, 100 complete control)
[19] = Preemergence, 250 g ai/ha, scale 0 to 100 (0 no effect, 100 complete control)
[20] = postemergence, 62 g ai/ha, scale 0 to 100, 0 no effect, 100 complete control

## Cc1ccc2ccccc2c1-c1c(O)c(C)nn(C)c1=O [Compound 59]
[1]; [14]
  Pigweed plant response rating: 80
[1]; [15]
  Plant response rating, Pigweed: 100
[1]; [16]
  Plant response rating, Pigweed: 100
[1]; Preemergence, 31 g ai/ha
  Plant response rating (scale of 0 to 100), Pigweed: 95
[1]; [17]
  Plant response rating, Pigweed: 100
[1]; [18]
  Plant response rating, Pigweed: 100
[1]; [19]
  Plant response rating, Pigweed: 100
[1]; [20]
  Plant response rating, Pigweed: 85
[2]; [14]
  Oilseed Rape plant response rating: 60
[2]; [15]
  Plant response rating, Oilseed Rape: 85
[2]; [16]
  Plant response rating, Oilseed Rape: 90
[2]; Preemergence, 31 g ai/ha
  Plant response rating (scale of 0 to 100), Oilseed Rape: 20
[2]; [17]
  Plant response rating, Oilseed Rape: 30
[2]; [18]
  Plant response rating, Oilseed Rape: 50
[2]; [19]
  Plant response rating, Oilseed Rape: 80
[2]; [20]
  Plant response rating, Oilseed Rape: 70
[3]; [14]
  Russian Thistle plant response rating: 80
[3]; [15]
  Plant response rating, Russian Thistle: 85
[3]; [16]
  Plant response rating, Russian Thistle: 85
[3]; Preemergence, 31 g ai/ha
  Plant response rating (scale of 0 to 100), Russian Thistle: 40
[3]; [17]
  Plant response rating, Russian Thistle: 50
[3]; [18]
  Plant response rating, Russian Thistle: 80
[3]; [19]
  Plant response rating, Russian Thistle: 90
[3]; [20]
  Plant response rating, Russian Thistle: 80
[4]; [14]
  Wheat, Spring plant response rating: 40
[4]; [15]
  Plant response rating, Wheat, Spring: 70
[4]; [16]
  Plant response rating, Wheat, Spring: 80
[4]; Preemergence, 31 g ai/ha
  Plant response rating (scale of 0 to 100), Wheat, Spring: 35
[4]; [17]
  Plant response rating, Wheat, Spring: 65
[4]; [18]
  Plant response rating, Wheat, Spring: 80
[4]; [19]
  Plant response rating, Wheat, Spring: 85
[4]; [20]
  Plant response rating, Wheat, Spring: 45
[5]; [14]
  Deadnettle plant response rating: 80
[5]; [15]
  Plant response rating, Deadnettle: 90
[5]; [16]
  Plant response rating, Deadnettle: 100
[5]; Preemergence, 31 g ai/ha
  Plant response rating (scale of 0 to 100), Deadnettle: 50
[5]; [17]
  Plant response rating, Deadnettle: 90
[5]; [18]
  Plant response rating, Deadnettle: 90
[5]; [19]
  Plant response rating, Deadnettle: 100
[5]; [20]
  Plant response rating, Deadnettle: 80
[6]; [14]
  Wheat, Winter plant response rating: 35
[6]; [15]
  Plant response rating, Wheat, Winter: 55
[6]; [16]
  Plant response rating, Wheat, Winter: 80
[6]; Preemergence, 31 g ai/ha
  Plant response rating (scale of 0 to 100), Wheat, Winter: 10
[6]; [17]
  Plant response rating, Wheat, Winter: 35
[6]; [18]
  Plant response rating, Wheat, Winter: 70
[6]; [19]
  Plant response rating, Wheat, Winter: 80
[6]; [20]
  Plant response rating, Wheat, Winter: 40
[7]; [14]
  Ryegrass, Italian plant response rating: 80
[7]; [15]
  Plant response rating, Ryegrass, Italian: 90
[7]; [16]
  Plant response rating, Ryegrass, Italian: 90
[7]; Preemergence, 31 g ai/ha
  Plant response rating (scale of 0 to 100), Ryegrass, Italian: 100
[7]; [17]
  Plant response rating, Ryegrass, Italian: 100
[7]; [18]
  Plant response rating, Ryegrass, Italian: 100
[7]; [19]
  Plant response rating, Ryegrass, Italian: 100
[7]; [20]
  Plant response rating, Ryegrass, Italian: 90
[8]; [14]
  Radish, Wild plant response rating: 95
[8]; [15]
  Plant response rating, Radish, Wild: 100
[8]; [16]
  Plant response rating, Radish, Wild: 100
[8]; [17]
  Plant response rating, Radish, Wild: 85
[8]; [18]
  Plant response rating, Radish, Wild: 95
[8]; [19]
  Plant response rating, Radish, Wild: 100
[8]; [20]
  Plant response rating, Radish, Wild: 95
[9]; [14]
  Field Violet plant response rating: 75
[9]; [15]
  Plant response rating, Field Violet: 95
[9]; [16]
  Plant response rating, Field Violet: 95
[9]; Preemergence, 31 g ai/ha
  Plant response rating (scale of 0 to 100), Field Violet: 80
[9]; [17]
  Plant response rating, Field Violet: 90
[9]; [18]
  Plant response rating, Field Violet: 95
[9]; [19]
  Plant response rating, Field Violet: 100
[9]; [20]
  Plant response rating, Field Violet: 80
[10]; [14]
  Windgrass plant response rating: 75
[10]; [15]
  Plant response rating, Windgrass: 80
[10]; [16]
  Plant response rating, Windgrass: 85
[10]; Preemergence, 31 g ai/ha
  Plant response rating (scale of 0 to 100), Windgrass: 85
[10]; [17]
  Plant response rating, Windgrass: 85
[10]; [18]
  Plant response rating, Windgrass: 100
[10]; [19]
  Plant response rating, Windgrass: 100
[10]; [20]
  Plant response rating, Windgrass: 80
[11]; [14]
  Blackgrass plant response rating: 70
[11]; [15]
  Plant response rating, Blackgrass: 85
[11]; [16]
  Plant response rating, Blackgrass: 85
[11]; Preemergence, 31 g ai/ha
  Plant response rating (scale of 0 to 100), Blackgrass: 85
[11]; [17]
  Plant response rating, Blackgrass: 90
[11]; [18]
  Plant response rating, Blackgrass: 95
[11]; [19]
  Plant response rating, Blackgrass: 100
[11]; [20]
  Plant response rating, Blackgrass: 80
[12]; [14]
  Field Poppy plant response rating: 70
[12]; [15]
  Plant response rating, Field Poppy: 95
[12]; [16]
  Plant response rating, Field Poppy: 100
[12]; Preemergence, 31 g ai/ha
  Plant response rating (scale of 0 to 100), Field Poppy: 100
[12]; [17]
  Plant response rating, Field Poppy: 100
[12]; [18]
  Plant response rating, Field Poppy: 100
[12]; [19]
  Plant response rating, Field Poppy: 100
[12]; [20]
  Plant response rating, Field Poppy: 75
[13]; [14]
  Chickweed plant response rating: 100
[13]; [15]
  Plant response rating, Chickweed: 100
[13]; [16]
  Plant response rating, Chickweed: 100
[13]; Preemergence, 31 g ai/ha
  Plant response rating (scale of 0 to 100), Chickweed: 100
[13]; [17]
  Plant response rating, Chickweed: 100
[13]; [18]
  Plant response rating, Chickweed: 100
[13]; [19]
  Plant response rating, Chickweed: 100
[13]; [20]
  Plant response rating, Chickweed: 98
